The values below come from the METLIN SMRT retention time set (Domingo-Almenara et al. 2019).

This data set is described as follows: gradient 5% acetonitrile 3 min, to 50% in 2 min, to 85% in 15 min, held 3 min, 100 µL/min. The following applies: column: Zorbax Extend-C18 2.1 x 50 mm; eluents: water / acetonitrile, 0.1% formic acid. Put shortly: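 The system's dead and dwell volumes were 40 μL and 900 μL, with a Zorbax Extend-C18 column (2.1 × 50 mm, 1.8 μm) run at 100 μL/min in water and acetonitrile containing 0.1% formic acid each. Pure standards were analyzed in mixtures of ~100 molecules by HPLC–quadrupole time-of-flight mass spectrometry in positive and negative ionization mode. Retention time was assigned from computationally picked, manually inspected adduct peaks.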
With `CCCc1ccc(S(=O)(=O)N2CCC3(CC2)NCCN=C3NCc2ccccc2)cc1`, the RP-LC retention time is 809 s.
Consider `CCn1cnc2ccc(-c3noc(COc4ccccc4)n3)cc21`, for which the RP-LC retention time turned out to be 742 s.
In the case of `Cc1ccc(-c2ncc(C(=O)Nc3cc(F)ccc3F)c(-c3ccncc3)n2)cc1`, the RP-LC retention time was found to be 988 s.
In the case of `COc1ccccc1-c1nc(Cn2nnc(-c3nc(-c4ccc(Cl)c(F)c4)no3)c2C)c(C)o1` it was 1240 s; in that of `Cc1ccc(NC(=O)CSCC(=O)N2CCC(C(N)=O)CC2)cc1`, 630 s.
Regarding `COc1ccc(CCC(=O)N(C)CCc2noc(COc3ccc(OC)cc3)n2)cc1`, the RP-LC retention time worked out at 911 s.
The compound `CCCn1cc(C(=O)NCCN2CCc3ccccc3C2)c2cccnc21` registered an RP-LC retention time of 648 s.
On to `Cc1cc(C)n(-c2ccnc(N3CCC(C(=O)NCCN4CCCC4)CC3)n2)n1`, for which the RP-LC retention time came out at 587 s.
For the compound `CCOC(=O)c1c(C)oc2nc(C)nc(NCCc3ccc(OC)c(OC)c3)c12`, the RP-LC retention time was found to be 1050 s.
`O=C(c1cn(-c2cc(N3CCCCC3)ncn2)cn1)N1CCC2(CC1)OCCO2` had an RP-LC retention time of 750 s.
In the case of `O=C(NCc1ccccc1)c1ncccn1` it was 609 s; in that of `Cc1ccc(-c2nc(-c3ccc4c(c3)ncn4CCC(=O)N3CCCC3)no2)s1`, 753 s.
In turn, `O=C(CSCc1nc2cccnc2n1C1CCCCC1)NCCc1ccco1` had an RP-LC retention time of 883 s.
In the case of `CC(=O)Nc1nc(-c2ccc3c(c2)N(C)C(=O)CO3)c(C)s1`, the RP-LC retention time was determined as 726 s.
In turn, `CCN(CC)CCNC(=O)c1sc2ncn(Cc3ccccc3F)c(=O)c2c1C` registered an RP-LC retention time of 638 s.
In turn, `CC(=O)Nc1nsc(N2CCC(C(=O)N3CCN(c4cc(C)ccc4C)CC3)CC2)n1` registered an RP-LC retention time of 820 s.
In the case of `Cc1ccc(-c2ccc(=O)n(Cc3nc(-c4ccc(OC(C)C)cc4)no3)n2)cc1` it was 597 s; in that of `Cc1ccc(Oc2cccc(C(=O)NCCNc3cc(-n4cccn4)ncn3)c2)nn1`, 615 s; in that of `Cc1ccccc1-c1nc(-c2cccc(-c3ccn[nH]3)c2)no1`, 1080 s.
With `Cc1nnc(-c2ccc3ccn(CC(=O)Nc4ccc(Cl)cc4F)c3c2)o1`, the RP-LC retention time worked out at 887 s.
With `CCCn1ncc(N2CCC(C(=O)N3CCCCC3)CC2)cc1=O` the figure was 559 s; with `COc1cc(COc2cc(N)c(Cl)cc2C(=O)CCC2CCN(CCNS(C)(=O)=O)CC2)cc(OC)c1`, 761 s.
With `Cc1ccc(NC(=O)C2CCCN(S(=O)(=O)c3c[nH]c(C(=O)N4CCCC4)c3)C2)c(C)c1` (centres undefined) the figure was 814 s.
Consider `CCCNC(=O)C1CCN(c2ccc(SCC(=O)NCc3ccccc3)nn2)CC1`, for which the RP-LC retention time was found to be 645 s.
Turning to `COC(=O)c1ccc2nc(NC(=O)c3cc(C)oc3C)sc2c1`, the RP-LC retention time is 947 s.
`Cn1nc2n(c1=O)CCN(C(=O)Cc1ccsc1)CC2` yielded an RP-LC retention time of 611 s.
The compound `CC(C)Cn1c(=O)c(N2CCC(NC(=O)NCc3ccccc3)CC2)nc2ccccc21` displayed an RP-LC retention time of 980 s.
With `COC(=O)c1ccc(NC(=O)N(C)CCc2noc(-c3ccccc3)n2)cc1` the figure was 840 s; with `Cc1nn(C)c(C)c1S(=O)(=O)N1CCCC(OCc2noc(C3CCOCC3)n2)C1` (centres undefined), 716 s; with `Clc1ccc(-c2nc(N3CCN(c4ccccn4)CC3)c3ccccc3n2)cc1`, 618 s.
With `Cc1ccccc1CNC(=O)CCc1conc1-c1ccc(F)cc1`, the RP-LC retention time was determined as 922 s.
Consider `O=C(CN1CCN(c2ccccn2)CC1)N1N=CCC1c1ccccc1` (centres undefined), for which the RP-LC retention time is 573 s.
In turn, `COc1cc(NC(=O)Cn2nc3c4ccc(F)cc4ncn3c2=O)cc(OC)c1` yielded an RP-LC retention time of 715 s.
With `Nc1c(C(=O)c2ccccc2)sc2[nH]c(=O)c(C(=O)O)cc12` the figure was 733 s; with `Cc1nc2cc(-c3noc(-c4ccc(Br)cc4)n3)ccc2n(C)c1=O`, 1180 s.
The compound `CCS(=O)(=O)N1CCc2c(c(CN(C(=O)c3ccc(F)cc3)c3ccccc3)nn2C)C1` showed an RP-LC retention time of 804 s.
In the case of `O=C(NC1CCCC1)c1ccc(-c2cccs2)nc1` it was 849 s; in that of `CCCN(CCC)c1nc(-c2ccccc2F)nc2ccccc12`, 814 s; in that of `CC(C)(C)C(=O)Nc1cnc(N2CCCCCC2)nc1`, 817 s.
In the case of `O=C(c1ccoc1)N1CCN(C(=O)c2nnn3c2COC(c2ccccc2)C3)CC1` (centres undefined) it was 767 s.
For the compound `COc1cc(Cl)ccc1C(=O)Nc1ccc2c(c1)Sc1ncccc1C(=O)N2C`, the RP-LC retention time worked out at 915 s.
As to `Cc1cc(C2CCCN2C(=O)Nc2ccccc2Cl)no1` (centres undefined), the RP-LC retention time amounted to 802 s.
As for `CCNC(=O)N1CCN(CCCC(c2ccc(F)cc2)c2ccc(F)cc2)CC1`, the RP-LC retention time is 766 s.
On to `CCS(=O)(=O)c1nc2ccc(NS(=O)(=O)c3c(C)n[nH]c3C)cc2s1`, for which the RP-LC retention time was determined as 693 s.
`COC(=O)c1ccc2c(=O)n(-c3ccc(C)c(C)c3)c(N3CCN(c4ccccn4)CC3)nc2c1` returned an RP-LC retention time of 756 s.
`COc1cccc(CCC(=O)N2CCN(c3nc(CN4CCC(C)CC4)cs3)CC2)c1`: the RP-LC retention time is 681 s.
With `CCOC(=O)c1cccc(NC2=NS(=O)(=O)C(c3ccc(OC)cc3)=C2C)c1` the figure was 965 s; with `CCN1c2cc(Cl)ccc2C(=O)NC12CCN(C(=O)NCc1cccc(F)c1)CC2`, 856 s.
`COc1ccc(N2CCN(c3ncc(S(=O)(=O)c4ccc(C)c(C)c4)c(N)n3)CC2)cc1` yielded an RP-LC retention time of 966 s.
With `COc1ccc(CCNC(=O)C2CCN(S(C)(=O)=O)c3cc(C)ccc3O2)cc1` (centres undefined) the figure was 893 s.
Compound `CCc1ccc(NS(=O)(=O)c2c(C)nc3sc4cc(C)ccc4n3c2=O)cc1` had an RP-LC retention time of 1240 s.
Compound `CC1CN(C(=O)CSc2cn(CC(=O)N(C(C)C)C(C)C)c3ccccc23)CC(C)O1` (centres undefined) had an RP-LC retention time of 959 s.
On to `Cc1noc(C)c1CN1CCN(C(=O)c2nc3ccccc3s2)CC1`, for which the RP-LC retention time came out at 574 s.
As to `Cc1sc2ccn(Cc3ccc(F)cc3)c(=O)c2c1C(=O)NCc1ccco1`, the RP-LC retention time is 912 s.
Compound `O=C(c1ccc(Br)cc1)N1CCN=C1N1CCN(c2ccccc2F)CC1` had an RP-LC retention time of 632 s.
`Cc1oc(-c2ccc(C(=O)NCCN(C)C)cc2)nc1CSc1ccccc1`: the RP-LC retention time was determined as 696 s.
With `Cc1cccc(C)c1NC(=O)Cn1cnc2onc(C)c2c1=O` the figure was 731 s; with `Cc1ccc(C2Cn3nnc(-c4nc(-c5cccc(F)c5)no4)c3CO2)c(C)c1` (centres undefined), 1300 s; with `CCc1noc([C@@H]2CC(F)(F)CN2S(=O)(=O)c2cccnc2)n1`, 773 s.
